Entries after “also recorded” stand apart in the source; their conditions may differ.

For series [1], the system named is Human red blood cells (hRBC). Nature of the series: Haemolysis assay. It is filed as cell-based. The following applies: 1.5 h at 37° C., 4% hRBC; listed as L-NCR247. The procedure:
Haemolysis assay: Standard methods of hemolysis assay as previously published was followed^96. Human red blood cells (hRBC) were washed three times with phosphate-buffered saline (PBS: 10 mM Na2HPO4, 1.76 mM K2HPO4, pH 7.4, containing […], and 2.7 mM KCl). Two-fold serial dilutions of the peptide solutions were then added to 50 μl aliquots of hRBC in PBS to adjust a final volume to 100 μl and hRBC concentration to 4% (v/v) in each well of a 96-well plate. The suspension was incubated for 1.5 h at 37° C. under stirring at 1000 rpm. The plates were centrifuged at 2000 g for 5 min. Supernatant aliquots of 50 μl were transferred into flat-bottomed 96-well microplates, and the release of hemoglobin was monitored by measuring the absorbance at 405 nm in a microplate reader. hRBC in PBS (0% lysis control) and 0.1% Triton X-100 (100% lysis control) were used as negative and positive controls, respectively. Hemolytic activity was expressed as a percentage of hemolysis calculated according to the following equation: Hemolysis (%)=(OD405nm sample—OD405nm 0% lysis control)/(OD405nm 100% lysis control−OD405nm 0% lysis control)*100.

Series [2] deals with S. meliloti. The series can be described thus: ICP-MS iron content of cells. It is filed as cell-based, Sinorhizobium meliloti. As to conditions: 2 μM. The procedure: ICP-MS: 200 μL of protein sample was mixed with 2 ml of 2% HNO3 and ICP-MS was performed as described previously^84. For bacterial samples, 1 ml of sample was spun down and the pellet was resuspended in 40 μL of 100% HNO3 and heated at 98° C. for 1 hour. The supernatant of the solution was mixed with metal free water to make up to 2 mL and ICP-MS analysis was performed as described previously^84. Same number of cells were spun down for protein analysis through […] and data were normalized to the amount of protein in each sample. For ICP-MS analysis of nodules same procedure was followed, except nodules were first crushed in PBS, portion of sample kept aside for protein quantification and then remaining was treated with HNO3. Agilent ICP-MS instrumentation with MassHunter 4.4 was used to collect data.

In series [3] the test system is S. meliloti. Nature of the series: Cell cycle progression by flow cytometry on synchronized cultures. It is filed as cell-based, Sinorhizobium meliloti. The following applies: synchronized culture, 4 uM; listed as L-NCR247. An excerpt:
FIG. 14. […] Cell cycle progression analysis using flow cytometry on synchronized cultures of Wild type S. meliloti and bacA mutant of S. meliloti treated with L or D-NCR247 when compared to untreated cells. Dark grey represents percentage of cells with 1 copy of genome and light grey represents percentage of cells with 2 copies of genomes. […] Data are presented as average of three biological replicates.
Since NCR247 treatment leads to gene expression change in several genes of the CtrA regulon, we investigated the CtrA regulon and the cell division inhibition role of NCR247. […] In addition, this phenotype is retained in a peptide transporter bacA mutant indicating cell division inhibition happens due to protein-peptide interaction outside the cytoplasm.
In general terms: Flow cytometry measures light scatter and fluorescence of single cells or particles in a stream.

In series [4] the test system is ndvA (FeuP regulated), SMc 01581 (ExoS regulated). The series can be described thus: qRT-PCR of FeuP and ExoS regulated genes. The format is cell-based, Sinorhizobium meliloti. As to conditions: 2 μM, 30 mins; listed as L-NCR247. The source says:
FIG. 17. […] The data are expressed as starting quantities (SQ) of respective mRNAs normalized to the control gene SMc00128 and are presented as average of three technical replicates FIG. 18. NCR247 binds heme and this heme sequestration leads to an iron starvation response in S. meliloti and this happens in the cytoplasm since a bacA mutant is defective in inducing iron import genes. […] The data are expressed as starting quantities (SQ) of respective mRNAs normalized to the control gene SMc00128 and are presented as average of three technical replicates. […] Data are presented as average of three technical replicates
RNA isolation and qRT-PCR analysis: Cells were grown in LB until they reached an O.D.600 nm of 0.2. Then cells were spun down and suspended in minimal media with or without appropriate FeSO4 concentrations for 1 hour. NCR247 was then added and 5 ml of appropriate cultures were spun down at given time intervals. Total RNA was extracted using Trizol™ (Thermo Fisher Scientific) method. Qiagen RNeasy™ kit was used to purify the RNA. […] The standard curve method was used for relative quantification. […] This curve was then used for extrapolating relative expression level of each gene of interest in a particular sample to obtain the starting quantities (SQ). […] These normalized values are then expressed as an average of triplicates, with standard deviation (s.d.) represented by the error bars. […]
In general terms: Real-time PCR tracks product formation cycle by cycle.

Another series concerns ribosomal machinery. The series can be described thus: In-vitro translation assay, GFP production. It is filed as biochemical. As to conditions: increasing concentrations; fluorescence and western blot; listed as L-NCR247. An excerpt: FIG. 19. Interaction of NCR247 with ribosomal machinery leads to modification in translational capability. (A) In-vitro translation assay to measure GFP production with increasing concentrations of L or D-NCR247. […] (B) Western blot to measure the amount of GFP produced using Anti-GFP antibody.
Interaction of NCR247 with ribosomal machinery leads to modification in translational capability. To see if this is due to chiral interaction, we performed in-vitro translation assay and used GFP production and measured fluorescence as a read out. We also performed a western blot to measure the amount of GFP produced using Anti-GFP antibody.
On the technique in general: Immunoblotting shows a protein as a band on a membrane.

In the case of RNGCIVDPRCPYQQCRRPLYCRRR [NCR247], the haemolytic activity entry in series [1] is reported as “did not detect haemolytic activities; also recorded: negligible hemolysis”. Moreover, the “total iron content of cells” value in the series on S. meliloti [2] was “elevated total iron content of the cells”; in the series with S. meliloti [2] (listed as L-NCR247), “Increase in Fe content”. Further, the cell division inhibition result in the series on S. meliloti [3] is recorded as “leads to cell division inhibition; also recorded: more percentage of cells having 2 copies of genome”. Also, the “expression of FeuP and ExoS regulated genes” value in series [4] is recorded as “increased in expression; also recorded: increase in expression of ndvA”. Moreover, the “production of GFP” value with ribosomal machinery is reported as “inhibition of production of GFP; also recorded: Fluorescence units decreased”.

These data come from patent publication US12065468B2, “Heme-binding small peptide” (priority 2021, dated 2024).
